{"source": "patent US20250360235A1", "about": "“RADI[…] AND METHOD FOR RADIOLABELLING” (Telix Innovations SA, priority 2024, published 2025)", "assay": "Radiochemical purity by iTLC over time after radiolabelling", "format": "physicochemical", "description": "Table 1 to Table 5 show the results of various radiolabelling experiments on radiochemical purity and the chelation yield. The radiolabelling experiments in the tables are carried out as described in: • Example 1 for when the gallium-68 source is GE Liquid target generator and EZAG GalliaPharm generator; • Example 2 for when the gallium-68 source is IRE Galli Eo generator; • Example 3 for when the gallium-68 source is GE solid target generator;\nHowever, the experiments were carried out with the amount of ascorbic acid as indicated in the Tables 1 to 5, and the activity as indicated in the Tables 1 to 5. Radiochemical purities were measured at various times (T0, T1, T4, T6) after the radiolabelled experiments have been conducted.\nThe kits of Example 1, Example 2 or Example 3, with amounts of ascorbic acid as set out in Table 7 were used in the experiments for the ascorbic acid bracketing matrix. Three strengths of [^68Ga]Ga-PSMA-11 will be tested, i.e. 50 mCi/ml, 7 mCi/ml and 1 mCi/ml. Radiochemical purity was determined at different time points (TO, T1, T4 or T6), as set out in Table 7.", "key": {"[1]": {"conditions": "15 mg ascorbic acid, 10.0-18.4 mCi, 0.95-1.77 mCi/mL, 1 × EZAG GalliaPharm, 2 × IRE Galli Eo, average of 3, T1 (1 h)"}, "[2]": {"conditions": "15 mg ascorbic acid, 10.0-18.4 mCi, 0.95-1.77 mCi/mL, 1 × EZAG GalliaPharm, 2 × IRE Galli Eo, n=3, T0"}, "[3]": {"conditions": "15 mg ascorbic acid, 10.0-18.4 mCi, 0.95-1.77 mCi/mL, 1 × EZAG GalliaPharm, 2 × IRE Galli Eo, n=3, T1 (1 h)"}, "[4]": {"conditions": "15 mg ascorbic acid, 23.7-47.6 mCi, 2.26-4.53 mCi/mL, 1 × EZAG GalliaPharm, 2 × IRE Galli Eo, average of 3, T0"}, "[5]": {"conditions": "15 mg ascorbic acid, 23.7-47.6 mCi, 2.26-4.53 mCi/mL, 1 × EZAG GalliaPharm, 2 × IRE Galli Eo, average of 3, T4 (4 h)"}, "[6]": {"conditions": "15 mg ascorbic acid, 23.7-47.6 mCi, 2.26-4.53 mCi/mL, 1 × EZAG GalliaPharm, 2 × IRE Galli Eo, n=3, T0"}, "[7]": {"conditions": "15 mg ascorbic acid, 23.7-47.6 mCi, 2.26-4.53 mCi/mL, 1 × EZAG GalliaPharm, 2 × IRE Galli Eo, n=3, T4 (4 h)"}, "[8]": {"conditions": "20 mg ascorbic acid, 514-544 mCi, 48.3-51.9 mCi/mL, GE Solid Target, average of 2, T0"}, "[9]": {"conditions": "20 mg ascorbic acid, 514-544 mCi, 48.3-51.9 mCi/mL, GE Solid Target, average of 2, T6 (6 h)"}, "[10]": {"conditions": "20 mg ascorbic acid, 514-544 mCi, 48.3-51.9 mCi/mL, GE Solid Target, n=2, T0"}, "[11]": {"conditions": "20 mg ascorbic acid, 514-544 mCi, 48.3-51.9 mCi/mL, GE Solid Target, n=2, T6 (6 h)"}, "[12]": {"conditions": "25 mg ascorbic acid, 19.5-20.0 mCi, 1.85-1.90 mCi/mL, EZAG GalliaPharm, average of 2, T0"}, "[13]": {"conditions": "25 mg ascorbic acid, 19.5-20.0 mCi, 1.85-1.90 mCi/mL, EZAG GalliaPharm, average of 2, T1 (1 h)"}, "[14]": {"conditions": "25 mg ascorbic acid, 19.5-20.0 mCi, 1.85-1.90 mCi/mL, EZAG GalliaPharm, n=2, T0"}, "[15]": {"conditions": "25 mg ascorbic acid, 19.5-20.0 mCi, 1.85-1.90 mCi/mL, EZAG GalliaPharm, n=2, T1 (1 h)"}, "[16]": {"conditions": "25 mg ascorbic acid, 23.3-24 mCi, 2.22-2.28 mCi/mL, IRE Galli Eo, average of 2, T0"}, "[17]": {"conditions": "25 mg ascorbic acid, 23.3-24 mCi, 2.22-2.28 mCi/mL, IRE Galli Eo, average of 2, T4 (4 h)"}, "[18]": {"conditions": "25 mg ascorbic acid, 23.3-24 mCi, 2.22-2.28 mCi/mL, IRE Galli Eo, n=2, T0"}, "[19]": {"conditions": "25 mg ascorbic acid, 23.3-24 mCi, 2.22-2.28 mCi/mL, IRE Galli Eo, n=2, T4 (4 h)"}, "[20]": {"conditions": "25 mg ascorbic acid, 46.0-46.1 mCi, 4.38-4.39 mCi/mL, EZAG GalliaPharm, average of 2, T0"}}}
{"smiles": "O=C([O-])CN(CCN(CC(=O)[O-])Cc1cc(CCC(=O)NCCCCCC(=O)NCCCC[C@H](NC(=O)N[C@@H](CCC(=O)O)C(=O)O)C(=O)O)ccc1[O-])Cc1cc(CCC(=O)O)ccc1[O-].[68Ga+3].[OH3+]", "note": "[[^68Ga]PSMA-11, gallium-68 radiolabelled Glu-urea-Lys-HBED-CC (gozetotide or PSMA-11)]", "values": [{"measurement": "Radiochemical Purity (iTLC) Ga-68 PSMA-11 (%)", "setting": "15 mg ascorbic acid, 10.0-18.4 mCi, 0.95-1.77 mCi/mL, 1 × EZAG GalliaPharm, 2 × IRE Galli Eo, average of 3, T0", "result": 100, "unit": "%"}, {"measurement": "Radiochemical Purity (iTLC) Free and Colloidal Ga-68 (%)", "setting": "[1]", "result": 0, "unit": "%"}, {"measurement": "Radiochemical Purity (iTLC) Ga-68 PSMA-11 (%)", "setting": "[1]", "result": 100, "unit": "%"}, {"measurement": "Radiochemical Purity (iTLC) Free and Colloidal Ga-68 (%)", "setting": "[2]", "result": "C (C = conforms to specifications)"}, {"measurement": "Radiochemical Purity (iTLC) Ga-68 PSMA-11 (%)", "setting": "[2]", "result": "C (C = conforms to specifications)"}, {"measurement": "Radiochemical Purity (iTLC) Free and Colloidal Ga-68 (%)", "setting": "[3]", "result": "C (C = conforms to specifications)"}, {"measurement": "Radiochemical Purity (iTLC) Ga-68 PSMA-11 (%)", "setting": "[3]", "result": "C (C = conforms to specifications)"}, {"measurement": "Radiochemical Purity (iTLC) Free and Colloidal Ga-68 (%)", "setting": "[4]", "result": 0, "unit": "%"}, {"measurement": "Radiochemical Purity (iTLC) Ga-68 PSMA-11 (%)", "setting": "[4]", "result": 100, "unit": "%"}, {"measurement": "Radiochemical Purity (iTLC) Free and Colloidal Ga-68 (%)", "setting": "[5]", "result": 0, "unit": "%"}, {"measurement": "Radiochemical Purity (iTLC) Ga-68 PSMA-11 (%)", "setting": "[5]", "result": 100, "unit": "%"}, {"measurement": "Radiochemical Purity (iTLC) Free and Colloidal Ga-68 (%)", "setting": "[6]", "result": "C (C = conforms to specifications)"}, {"measurement": "Radiochemical Purity (iTLC) Ga-68 PSMA-11 (%)", "setting": "[6]", "result": "C (C = conforms to specifications)"}, {"measurement": "Radiochemical Purity (iTLC) Free and Colloidal Ga-68 (%)", "setting": "[7]", "result": "C (C = conforms to specifications)"}, {"measurement": "Radiochemical Purity (iTLC) Ga-68 PSMA-11 (%)", "setting": "[7]", "result": "C (C = conforms to specifications)"}, {"measurement": "Radiochemical Purity (iTLC) Free and Colloidal Ga-68 (%)", "setting": "[8]", "result": 3, "unit": "%"}, {"measurement": "Radiochemical Purity (iTLC) Ga-68 PSMA-11 (%)", "setting": "[8]", "result": 97, "unit": "%"}, {"measurement": "Radiochemical Purity (iTLC) Free and Colloidal Ga-68 (%)", "setting": "[9]", "result": 2, "unit": "%"}, {"measurement": "Radiochemical Purity (iTLC) Ga-68 PSMA-11 (%)", "setting": "[9]", "result": 98, "unit": "%"}, {"measurement": "Radiochemical Purity (iTLC) Free and Colloidal Ga-68 (%)", "setting": "[10]", "result": "C (C = conforms to specifications)"}, {"measurement": "Radiochemical Purity (iTLC) Ga-68 PSMA-11 (%)", "setting": "[10]", "result": "C (C = conforms to specifications)"}, {"measurement": "Radiochemical Purity (iTLC) Free and Colloidal Ga-68 (%)", "setting": "[11]", "result": "C (C = conforms to specifications)"}, {"measurement": "Radiochemical Purity (iTLC) Ga-68 PSMA-11 (%)", "setting": "[11]", "result": "C (C = conforms to specifications)"}, {"measurement": "Radiochemical Purity (iTLC) Free and Colloidal Ga-68 (%)", "setting": "[12]", "result": 2, "unit": "%"}, {"measurement": "Radiochemical Purity (iTLC) Ga-68 PSMA-11 (%)", "setting": "[12]", "result": 98, "unit": "%"}, {"measurement": "Radiochemical Purity (iTLC) Free and Colloidal Ga-68 (%)", "setting": "[13]", "result": 0, "unit": "%"}, {"measurement": "Radiochemical Purity (iTLC) Ga-68 PSMA-11 (%)", "setting": "[13]", "result": 100, "unit": "%"}, {"measurement": "Radiochemical Purity (iTLC) Free and Colloidal Ga-68 (%)", "setting": "[14]", "result": "C (C = all results conform to specifications)"}, {"measurement": "Radiochemical Purity (iTLC) Ga-68 PSMA-11 (%)", "setting": "[14]", "result": "C (C = all results conform to specifications)"}, {"measurement": "Radiochemical Purity (iTLC) Free and Colloidal Ga-68 (%)", "setting": "[15]", "result": "C (C = all results conform to specifications)"}, {"measurement": "Radiochemical Purity (iTLC) Ga-68 PSMA-11 (%)", "setting": "[15]", "result": "C (C = all results conform to specifications)"}, {"measurement": "Radiochemical Purity (iTLC) Free and Colloidal Ga-68 (%)", "setting": "[16]", "result": 1, "unit": "%"}, {"measurement": "Radiochemical Purity (iTLC) Ga-68 PSMA-11 (%)", "setting": "[16]", "result": 99, "unit": "%"}, {"measurement": "Radiochemical Purity (iTLC) Free and Colloidal Ga-68 (%)", "setting": "[17]", "result": 0, "unit": "%"}, {"measurement": "Radiochemical Purity (iTLC) Ga-68 PSMA-11 (%)", "setting": "[17]", "result": 100, "unit": "%"}, {"measurement": "Radiochemical Purity (iTLC) Free and Colloidal Ga-68 (%)", "setting": "[18]", "result": "C (C = all results conform to specifications)"}, {"measurement": "Radiochemical Purity (iTLC) Ga-68 PSMA-11 (%)", "setting": "[18]", "result": "C (C = all results conform to specifications)"}, {"measurement": "Radiochemical Purity (iTLC) Free and Colloidal Ga-68 (%)", "setting": "[19]", "result": "C (C = all results conform to specifications)"}, {"measurement": "Radiochemical Purity (iTLC) Ga-68 PSMA-11 (%)", "setting": "[19]", "result": "C (C = all results conform to specifications)"}, {"measurement": "Radiochemical Purity (iTLC) Free and Colloidal Ga-68 (%)", "setting": "[20]", "result": 0, "unit": "%"}, {"measurement": "Radiochemical Purity (iTLC) Ga-68 PSMA-11 (%)", "setting": "[20]", "result": 100, "unit": "%"}]}
